Data reported in patent US20170258930A1, “SKIN PENETRATING PEPTIDES (SPPS) AND METHODS OF USE THEREFOR” (The Regents of the University of California, priority 2014, published 2017).

Each sequence was assayed on full thickness porcine skin (assay: Phage display library (PDL) screening for skin penetrating peptides on porcine skin in Franz diffusion cells). Settings: after third round of screening; phage-displayed 12-mer peptides; four different skin samples (n = 4); receptor collected after 24 hours.
Type: in vitro ADME
Experimental: Phage Display Library (PDL) screening was performed on full thickness porcine skin using Franz diffusion cells. Porcine skin was sandwiched in between the donor and receptor compartments in such a way that SC faced the donor compartment. Phosphate-buffered saline (PBS: 10 mM), pH 7.4 (12 ml) was added in the receptor compartment. The skin was equilibrated at 37° C. for 0.5-1 hours before the experiment. The skin integrity was determined by measuring the skin conductivity.
To perform PDL screening, 1×10^11 plaque forming units (pfu) of phages from a 12-mer phage display peptide library (PDL) were added into the donor compartment and covered with parafilm to maintain the occlusive condition. Phage particles which permeated across the skin were collected from the receptor chamber after 24 hours and amplified using a standard M13 phage amplification protocol. Amplified pool of phages (1×10^11 pfu) was loaded again in the donor chamber for another round of screening. In this way, three rounds of screenings were performed.
After third round of screening, DNAs were isolated from phages, which crossed the skin consistently in higher numbers, and sent for DNA sequencing to analyze the peptide present on their surface. After three round of screening, seven (7) peptide sequences that consistently crossed the skin were identified (see Table 3). […] The identified peptides, SEQ ID NOs: 1-7, are referred to herein as skin penetrating peptides (SPPs).

Sequence	Frequency (how many times a same peptide sequence was identified when 31 peptides were randomly picked from the receptor compartment)
SHMQNRPASDEH [SHMQNRPASDEH (SEQ ID NO: 4), 12-mer skin penetrating peptide (SPP) identified by phage display library screening on porcine skin]	3 out of 31
LVPDRMTAISRA [LVPDRMTAISRA (SEQ ID NO: 6), 12-mer skin penetrating peptide (SPP) identified by phage display library screening on porcine skin]	2 out of 31
AYNAGSILENNF [YNAGSILENNF (SEQ ID NO: 5), 12-mer skin penetrating peptide (SPP) identified by phage display library screening on porcine skin]	2 out of 31
HIITDPNMAEYL [HIITDPNMAEYL (SEQ ID NO: 1), 12-mer skin penetrating peptide (SPP) identified by phage display library screening on porcine skin]	8 out of 31
NSLRNYDFLITM [NSLRNYDFLITM (SEQ ID NO: 7), 12-mer skin penetrating peptide (SPP) identified by phage display library screening on porcine skin]	2 out of 31
GYGFSNTNSFFV [GYGFSNTNSFFV (SEQ ID NO: 3), 12-mer skin penetrating peptide (SPP) identified by phage display library screening on porcine skin]	3 out of 31
SYTQRADSTTLH [SYTQRADSTTLH (SEQ ID NO: 2), 12-mer skin penetrating peptide (SPP) identified by phage display library screening on porcine skin]	3 out of 31

Same assay, conditions: after three rounds of screening, full thickness porcine skin

Sequence	Crossing of the skin by phage displaying the peptide (in words)
HIITDPNMAEYL [HIITDPNMAEYL (SEQ ID NO: 1), 12-mer skin penetrating peptide (SPP) identified by phage display library screening on porcine skin]	crossed the skin at very high frequency
